8 molecules from patent US20090036416A1, “Novel CXCR4 Antagonist and Use Thereof” (Kyoto University, priority 2005, published 2009) can be followed below.

Test [1] deals with T1, CXCR4 (Homo sapiens, UniProt P61073). In words: CXCR4 antagonistic activity: inhibition of Ca2+ movement induced by SDF-1a in CXCR4 transfected CHO cells (Fura-2). The class given is cell-based. As to conditions: for CXCR4 antagonistic activity (in words): comment in the text on Tables 1 to 3. The procedure:
Various aromatic compounds each having a dipicolylamine-zinc complex were prepared, and their CXCR4 antagonistic effects were examined using the following method.
A CXCR4 transfected Chinese hamster ovary(CHO) cells (3×10^4 cell/100 μL/well) were plated in each well of a flat-bottomed micro-titer tray. The samples were incubated in a CO2 incubator at 37° C., and the cells were loaded in Ham F-12 buffer(80 μL/well) for an hour at 37° C., together with 5 μM Fura-2AM (Dojindo, Kumatomo, Japan), 2.5 mM Probenecid (Sigma) and 20 mM HEPES(pH7.4).
Thereafter, the cells were washed twice with Hank's balanced salt solution (100 μL×2), and placed in a spectrofluorimeter (96 well Fluorescence Drug Screening System, Hamamatsu Photonics K.K. Japan). 30 seconds after the measurement started, the cells were incubated in Hank's balanced salt solution with plural test compounds of different concentrations. After 3 minutes, recombinant SDF-1a (PreproTech, 30 nM/[…]/well) was added.
Changes of the CXCR4 transfect CHO cell system loaded with Fura2-A[Ca^2+], were recorded in real time with a modification method of Fura-2. The CXCR4 antagonistic effect was measured based on the inhibition of Ca^2+ movement induced by the stimulation of SDF-1a via CXCR4 (IC50).

A further test has as its system HIV-1IIIB. To be noted: read-out: EC50 (anti-HIV-1 activity); HIV-1IIIB infected MT-4 cells, virus number/cells number=0.01, five days, MTT viable cell count.
Test [2] addresses T1, CXCR4. Briefly: CXCR4 binding activity: inhibition of 125I-SDF-1a bonding to CXCR4 transfected CHO cells.
Procedure: A CXCR4 transfected CHO cells suspended in Ham's F-12 buffer (0.5% bovine serum albumin, 20 mM HEPES buffer) were placed in a silicon-coated test tube (5×10^5 cells/120 μL/well). Cold SDF-1 a (Final concentration 0.1 μM, 15 μL/well) and a test object having one of various concentrations (15 μL/well) was added to the test tube. Thereafter, ^125I-SDF-1a (PerkinElmer, final concentration=0.1 nM, 15 μL/well) was added. The sample was incubated for an hour at 0° C., mixed with oil (dibutyl phthalate: olive oil=4:1(v/v), 500 μL/well), then centrifuged for 2 minutes at 14,000 rpm. After removing the water layer and the organic layer, the bottom part was separated from the test tube and was placed in a radioimmunoassay counting tube. Thereafter, count per minute (CPM) was measured with a γ-counter.
Inhibition rate (%)=(Et−Ea)/(Et−Ec)×100

pEC50, pIC50: −log10 of the molar value.

T1 sequence (P61073 whole entry): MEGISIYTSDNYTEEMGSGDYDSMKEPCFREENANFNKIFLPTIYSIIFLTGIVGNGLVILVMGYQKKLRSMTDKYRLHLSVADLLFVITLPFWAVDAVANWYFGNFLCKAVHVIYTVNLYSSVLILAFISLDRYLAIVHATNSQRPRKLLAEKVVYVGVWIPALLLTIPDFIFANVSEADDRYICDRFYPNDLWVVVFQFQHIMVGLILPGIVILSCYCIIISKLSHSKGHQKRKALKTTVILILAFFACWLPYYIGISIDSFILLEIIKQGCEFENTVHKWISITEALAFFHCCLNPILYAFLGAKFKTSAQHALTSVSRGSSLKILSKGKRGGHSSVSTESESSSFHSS
Procedure for HIV-1IIIB: The method carries out measurement of anti-HIV-1 activity based on the inhibition effect with respect to cellular degeneration induced in the MT-4 cells by HIV-1.
MT-4 and MOLT-4 cells, human T-cell systems, are incubated in a RPMI1640 culture medium containing 10% heat-inactivated fetal bovine serum, 100 IU/mL of penicillin, and 100 mg/mL of streptomycin.
HIV-1IIIB, an X4-HIV-1-strain, was used as virus. The virus was obtained from a culture solution supernatant of MOLT-4/HIV-1IIIB cells persistently infected with HIV-1, and was kept at −80° C. before use.
Plural test compounds of different concentrations were individually added to HIV-1 infected MT-4 cells (virus number/cells number=0.01), and the samples were plated in the wells of a flat-bottomed micro-titer tray (1.5×10^4 cells/well). The samples were incubated in a CO2 incubator for five days at 37° C. A viable cell count was carried out (EC50) with an MTT method.

By pIC50 is commonly meant the IC50 on a negative log10 scale, so that one unit is a factor of ten. Higher therefore signals a low IC50. In the case of `c1ccc(CN(Cc2ccc(-c3ccc(CN(Cc4ccccn4)Cc4ccccn4)cc3)cc2)Cc2ccccn2)nc1` [Comparative Example Compound B, reference compound], the pIC50 on CXCR4 [1] was < 5.00. What is called pEC50 is the EC50 on a negative log10 scale, so that one unit is a factor of ten. For “bis(2,2′-dipicolylamino)-p-xylene/zinc complex [Example Compound 1]”, the pEC50 in the test with HIV-1IIIB is 5.15. In addition, the “CXCR4 antagonistic activity (in words)” value on CXCR4 [1] was “strong CXCR4 antagonistic activity”. The “CXCR4 bonding activity (in words)” value on CXCR4 [2] (comment in the text on Table 4) was “comparative to that of Reference Example Compound III (KRH-1636)”. With `C[C@H](NC(=O)[C@H](CCCNC(=N)N)NC(=O)c1ccc(CNCc2ccccn2)cc1)c1cccc2ccccc12` [Reference Example Compound III, reference compound], the pIC50 on CXCR4 [1] is 6.62; at CXCR4 [2], 7.47. On CXCR4 [1], `c1ccc(CN(Cc2cccc(-c3cccc(CN(Cc4ccccn4)Cc4ccccn4)c3)c2)Cc2ccccn2)nc1` [Example Compound 3] had a negative logarithm of the IC50 (pIC50) of 6.46. With “9,10-bis[(2,2′-dipicolylamino) methyl]anthracene/Zn complex [Example Compound 9]”, the “CXCR4 antagonistic activity (in words)” value on CXCR4 [1] was “high activity”. The negative-log IC50 (pIC50) at CXCR4 [1] (inhibition of Ca2+ movement induced by SDF-1a (30 nM) via CXCR4, CXCR4 transfected CHO cells) was 6.62. `c1ccc(CN(Cc2ccc(CN(Cc3ccccn3)Cc3ccccn3)cc2)Cc2ccccn2)nc1` [Comparative Example Compound A, reference compound]: the pIC50 at CXCR4 [1] is < 5.00. On to `c1ccc(CN(Cc2ccnc(-c3cc(CN(Cc4ccccn4)Cc4ccccn4)ccn3)c2)Cc2ccccn2)nc1` [Example Compound 5], for which the negative logarithm of the IC50 (pIC50) at CXCR4 [1] was 6.34. Molecule `c1ccc(CN(Cc2ccccn2)Cc2c3ccccc3cc3ccccc23)nc1` [Example Compound 8] showed a pIC50 against CXCR4 [1] of 6.11.
